Common to all, as to format: functional
Assay [1] is filed under the species Oryctolagus cuniculus. Briefly: In vitro inhibition of protein synthesis in rabbit reticulocyte lysates.
The test system of assay [2] is SNB-75. Kind of assay: Compound was evaluated for cytotoxic activity against CNS cancer SNB-75 cell lines. The note with it: Homo sapiens, read-out: LC50 (the source's name).
In assay [3] the test system is A549. Kind of assay: Compound was evaluated for cytotoxic activity against non-small lung cancer A549/ATCC cell lines. The note with it: Homo sapiens, read-out: LC50 (the source's name).
The test system of assay [4] is RXF 393. Briefly: Compound was evaluated for cytotoxic activity against renal cancer RXF-393 cell lines. Conditions: Homo sapiens, read-out: LC50 (the source's name).
Assay [5] relates to SK-MEL-5. Kind of assay: Compound was evaluated for cytotoxic activity against melanoma Sk-MEL-5 cell lines. Conditions: Homo sapiens, read-out: LC50 (the source's name).
Assay [6] deals with HT-29. Briefly: Compound was evaluated for cytotoxic activity against colon cancer HT-29 cell lines. Conditions: Homo sapiens, read-out: LC50 (the source's name).

What is called IC50 is the concentration at which inhibition is half-maximal. Lower therefore signals greater potency. Regarding `CC[C@H](C)[C@H]1NC(=O)[C@@H](NC(=O)[C@@H](CC(C)C)N(C)C(=O)[C@@H]2CCCN2C(=O)[C@H](C)O)[C@@H](C)OC(=O)[C@H](CC(C)C)N(C)C(=O)[C@@H]2CCCN2C(=O)[C@H](CC(C)C)NC(=O)[C@@H](C)C(=O)[C@H](C(C)C)OC(=O)C[C@@H]1O` [listing 1 of 2 here], the IC50 in assay [1] is 9000 nM. In other words, the single-digit micromolar range.
As to `CC[C@H](C)[C@H]1NC(=O)[C@@H](NC(=O)[C@@H](CC(C)C)N(C)C(=O)[C@@H]2CCCN2C(=O)[C@H](C)O)[C@@H](C)OC(=O)[C@H](CC(C)C)N(C)C(=O)[C@@H]2CCCN2C(=O)[C@H](CC(C)C)NC(=O)[C@@H](C)C(=O)[C@H](C(C)C)OC(=O)C[C@@H]1O` [listing 2 of 2 here], the CC50 in assay [2] is 399 nM; in assay [3], more than 25000 nM; in assay [4], 258 nM; in assay [5], 79.9 nM; in assay [6], 445 nM.
